Measured values published in patent US20240390660A1, “APPARATUS, SYSTEMS AND METHODS FOR TRANSDERMAL DRUG DELIVERY, PERMEABILITY ENHANCEMENT AND AUGMENTATION” (University of Iowa Research Foundation, priority 2021, published 2024).
Counter-ions that a name gives are not always drawn.

Columns and labels:
[1] = in vivo; cited from earlier work
[2] = In vivo pharmacokinetics studies, dMN + NLX-HCL gel with or without heating pod; set-up: species or system albino Hartley guinea pigs; conditions: for enhancement in plasma concentration achieved with heat (vs no heat): 1 dMN; for plasma concentration, 2 dMN vs 1 dMN: non-heated
Source text: In Vivo Pharmacokinetics Studies. Preliminary in vivo data were collected in male (n=3) and female (n=2) albino Hartley guinea pigs (a common small animal model for dermal drug studies). All study procedures were IACUC approved. A crossover study design was used, dMN with and without use of heat (described in Table 5). The dorsal hair was clipped (not shaved) a day prior to studies. Either one or two dMN arrays (for a total of 100 or 200 dMNs total) were applied to the dorsal skin of the animal using gentle thumb pressure, and the backing of the dMN was removed.
The heat reaction was initiated by removing the protective tape cover. This was the same approach and conditions as used for the in vitro studies. […] Blood samples were collected at 0, 5, 10, 15, 30, 60, 75, 90, and 120 min. Plasma was separated from the blood immediately after collection and stored at −80° C. until analysis. A thermocouple probe in contact with the skin during the in vivo studies was used to record the skin temperature at the same timepoints as blood sampling.
The mixture was vortexed for 60 sec and centrifuged at 10,000 rpm for 15 min. The supernatant ethyl acetate layer was pipetted off and placed in a 5 mL glass tube under dry nitrogen to evaporate the organic layer. The dried residues were reconstituted with 100 μL 0.1% formic acid and analyzed using LC/MS.
Data Analysis. […] It is understood that when discussed herein, 1 dMN refers to a condition with a single, 100 microneedle array and 2 dMN refers to a condition with two arrays. All conditions were compared with and without the heating pod. […] For all analyses, p<0.05 was considered statistically significant.

SMILES	NLX population clearance [1] [L/h]	enhancement in plasma concentration achieved with heat (vs no heat) ([2]; 5 min)	enhancement in plasma concentration achieved with heat (vs no heat) ([2]; 15 min)	enhancement in plasma concentration achieved with heat (vs no heat) ([2]; 30 min)	enhancement in plasma concentration achieved with heat (vs no heat) ([2]; 60 min)	AUC with heat compared to the same conditions without heat ([2]; 2 dMN, 0-5, 0-15, 0-30 and 0-60 min, p<0.05)	enhancement of plasma concentrations by applied heat ([2]; 2 dMN, 5 min) [×]	enhancement of plasma concentrations by applied heat ([2]; 2 dMN, 15 min) [×]	enhancement of plasma concentrations by applied heat ([2]; 2 dMN, 30 min) [×]	enhancement of plasma concentrations by applied heat ([2]; 2 dMN, 60 min) [×]	normalized plasma concentrations, heated vs dMN without heat ([2]; 2 or 1 dMN arrays)	normalized plasma concentrations, 1 vs 2 dMN ([2]; heated or not heated, at 5, 15, 30 and 60 min)	AUC 2 dMN vs 1 dMN ([2]; heated, all time ranges tested, p<0.05)	plasma concentration, 2 dMN vs 1 dMN ([2]; 5 min) [×]	plasma concentration, 2 dMN vs 1 dMN ([2]; 15 min) [×]	plasma concentration, 2 dMN vs 1 dMN ([2]; 30 min) [×]	plasma concentration, 2 dMN vs 1 dMN ([2]; 60 min) [×]
C=CCN1CC[C@]23c4c5ccc(O)c4O[C@H]2C(=O)CC[C@@]3(O)[C@H]1C5 [NLX, naloxone]	91																
C=CCN1CC[C@]23c4c5ccc(O)c4O[C@H]2C(=O)CC[C@@]3(O)[C@H]1C5 [NLX-HCL, naloxone hydrochloride]		2.4	1.3	1.2	1.4	significantly higher	2.1	2.2	2.1	1.8	not significantly higher	no statistically significant differences	significantly higher	2.1	1.6	2.0	2.3
